Data reported in patent US20090221559A1 (priority 2005, published 2009).
Like-named read-outs stand apart in the source and are kept apart here.

Columns and labels:
[1] = system: HCV replicon RNA replication in Huh-7 luc/neo (Huh-Luc) cells; assay: HCV replicon assay (stable replicon cell reporter assay, luciferase read-out); type: cell-based, HCV type 1b
Outline: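 Huh-7 cells stably carry a bicistronic HCV 1b NS3-NS5B subgenomic replicon with firefly luciferase and neo markers. Cells were plated with compound across a concentration range and incubated three days. Replication was measured as luciferase activity to give dose-response curves.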

[2] = target: T1, HCV NS5B polymerase (His-tagged, C-terminal 21 amino acid deleted NS5B, HC-J4) (Hepatitis C virus genotype 1b, UniProt O92972); assay: NS5b polymerase assay (biochemical RdRp assay, 3H-GTP incorporation, SPA beads); parameters: species or system HCV genotype 1b
T1 construct: The cDNA encoding NS5B amino acid 1-570 (HC-J4, genotype 1b); His tag (His6, from pET-21b) (C); made in house; host or cells: E. coli BL21 (DE3)
T1 sequence (O92972 2417-3000, looked up, stated change not applied): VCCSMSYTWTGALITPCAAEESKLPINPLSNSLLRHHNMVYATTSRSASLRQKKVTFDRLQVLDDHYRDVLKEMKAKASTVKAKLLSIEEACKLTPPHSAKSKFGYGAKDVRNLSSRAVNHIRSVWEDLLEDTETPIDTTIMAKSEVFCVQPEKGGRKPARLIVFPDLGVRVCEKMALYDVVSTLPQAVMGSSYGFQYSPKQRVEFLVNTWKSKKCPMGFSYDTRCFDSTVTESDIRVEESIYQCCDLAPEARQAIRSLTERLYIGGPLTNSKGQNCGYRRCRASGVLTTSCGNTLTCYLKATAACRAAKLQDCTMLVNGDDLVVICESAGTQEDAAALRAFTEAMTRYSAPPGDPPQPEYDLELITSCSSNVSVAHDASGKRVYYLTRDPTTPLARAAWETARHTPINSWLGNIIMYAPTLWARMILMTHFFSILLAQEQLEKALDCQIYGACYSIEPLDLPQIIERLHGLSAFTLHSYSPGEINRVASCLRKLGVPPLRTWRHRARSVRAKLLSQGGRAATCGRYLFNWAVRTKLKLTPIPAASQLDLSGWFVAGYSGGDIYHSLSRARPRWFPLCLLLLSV
Outline: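 His-tagged C-terminal-21-aa-deleted NS5B (genotype 1b, HC-J4) at 200 nM was preincubated 15 min at RT with compound on 5′-biotinylated oligo(rG13)/poly(rC) template/primer before NTPs. Reaction with 600 nM GTP plus 0.1 μCi 3H-GTP and 5 mM MgCl2 in Tris pH 7.5 ran 2 h at 25 °C. Stopped with EDTA/SPA beads for incorporation counting.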

[3] = read-out: Replicon Assay EC50, Huh-Luc cells, three days incubation, luciferase activity
[4] = NS5B Polymerase Assay IC50, 200 nM enzyme, 3H-GTP incorporation, 2 h at 25° C.
[5] = Hepatitis C virus, Huh-7, 72 h, read-out: Replicon Assay EC50 (μM), Huh-Luc cells, incubation of three days, luciferase activity
[6] = NS5B Polymerase Assay IC50 (μM)
[7] = Hepatitis C virus, Huh-7, 72 h, read-out: Replicon Assay EC50, Huh-Luc cells, three days incubation, luciferase activity
[8] = Huh-Luc cells, three days incubation, luciferase activity, read-out: Replicon Assay EC50
[9] = 200 nM enzyme, 3H-GTP incorporation, 2 h at 25° C., read-out: NS5B Polymerase Assay IC50

CC(=O)N1c2ccccc2NC2=C(C(=O)CC(C)(C)C2)C1c1ccc(Cl)cc1Cl (single isomer, unassigned) [compound 35, 10-Acetyl-11-(2,4-dichlorophenyl)-2,3,4,5,10,11-hexahydro-3,3-dimethyl-1H-dibenzo[b,e][1,4]diazepin-1-one]
EC50 [1, 3]: 20.5 µM
IC50 [2, 4]: 1.28 µM

CC1(C)CC(=O)C2=C(C1)Nc1ccccc1NC2c1ccc(C(F)(F)F)cc1 (stereo not drawn) [compound 429]
EC50 [1, 5]: > 31 µM
IC50 [2, 6]: > 42.7 µM

CC(=O)N1c2ccccc2NC2=C(C(=O)CC(C)(C)C2)C1c1c(Cl)cccc1Cl (stereo not drawn) [compound 50]
EC50 [1, 7]: > 32 µM
IC50 [2, 4]: > 42.7 µM

CCOc1ccc(C2C3=C(CC(C)(C)CC3=O)Nc3ccccc3N2C(C)=O)cc1 (stereo not drawn) [compound 57]
EC50 [1, 7]: 4.47 µM
IC50 [2, 4]: > 42.7 µM

CCC(=O)N1c2ccccc2NC2=C(C(=O)CC(c3ccco3)C2)C1c1cccc([N+](=O)[O-])c1 (stereo not drawn) [compound 288]
EC50 [1, 8]: 25 µM
IC50 [2, 9]: > 42.7 µM

CC1(C)CC(=O)C2=C(C1)Nc1ccccc1N(C(=O)Cc1ccccc1)C2c1cccc(Cl)c1 (stereo not drawn) [compound 31]
EC50 [1, 7]: 6.36 µM
IC50 [2, 4]: > 42.7 µM

COc1ccc(C2C3=C(CC(C)(C)CC3=O)Nc3ccccc3N2C(C)=O)c(OC)c1 (stereo not drawn) [compound 132]
EC50 [1, 7]: 12.8 µM
IC50 [2, 4]: > 42.7 µM

CCC(=O)N1c2ccccc2NC2=C(C(=O)CC(C)(C)C2)C1c1ccccc1OC(C)CC (stereo not drawn) [compound 61]
EC50 [1, 7]: 9.45 µM
IC50 [2, 4]: > 42.7 µM

CC(=O)N1c2ccccc2NC2=C(C(=O)CC(C)(C)C2)C1c1cc(Cl)c(OCc2ccccc2)c(Cl)c1 (stereo not drawn) [compound 143, 10-acetyl-11-[4-benzyloxy-3,5-dichlorophenyl]-3,3-dimethyl-2,3,4,5,10,11-hexahydro-1H-dibenzo[b,e][1,4]diazepin-1-one]
EC50 [1, 7]: 6.3 µM
IC50 [2, 4]: 16 µM

CCn1c2ccccc2c2cc([C@@H]3Nc4ccccc4NC4=C3C(=O)C[C@@H](c3ccc(OC)c(OC)c3)C4)ccc21 [compound 477]
EC50 [1, 5]: 4.49 µM
IC50 [2, 6]: > 42.7 µM

CC(=O)N1c2cc(F)c(F)cc2NC2=C(C(=O)CC(C)(C)C2)C1c1ccc(Cl)cc1Cl (stereo not drawn) [compound 310, 10-acetyl-7,8-difluoro-11-(2,4-dichlorophenyl)-3,3-dimethyl-2,3,4,5,10,11-hexahydro-1H-dibenzo[b,e][1,4]diazepin-1-one]
EC50 [1, 7]: 16.4 µM
IC50 [2, 4]: 14.5 µM

COc1cccc(C2Nc3ccccc3NC3=C2C(=O)CC(c2ccc(Cl)cc2)C3)c1OC (stereo not drawn) [compound 348]
EC50 [1, 5]: 4.48 µM
IC50 [2, 6]: 29.6 µM

CCCCOc1cccc(C2C3=C(CC(C)(C)CC3=O)Nc3ccccc3N2C(C)=O)c1 (stereo not drawn) [compound 79]
EC50 [1, 7]: 31.3 µM
IC50 [2, 4]: > 42.7 µM

CCC(=O)N1c2ccccc2NC2=C(C(=O)CC(c3ccc(C)cc3)C2)C1c1cccc(Cl)c1 (mixture of isomers) [compound 195]
EC50 [1, 8]: 6.9 µM
IC50 [2, 9]: > 33.3 µM

CCn1c2ccccc2c2cc([C@@H]3Nc4ccccc4NC4=C3C(=O)C[C@@H](c3ccccc3)C4)ccc21 [compound 484]
EC50 [1, 5]: 6.65 µM
IC50 [2, 6]: > 42.7 µM

CC(=O)N1c2ccccc2NC2=C(C(=O)CC(C)(C)C2)C1c1cccc(F)c1 (stereo not drawn) [compound 104]
EC50 [1, 7]: > 32 µM
IC50 [2, 4]: > 42.7 µM

COc1ccc(C2CC(=O)C3=C(C2)Nc2ccccc2NC3c2ccc(Cl)cc2)cc1OC (stereo not drawn) [compound 415]
EC50 [1, 5]: 14.7 µM
IC50 [2, 6]: > 33.3 µM

CC1(C)CC(=O)C2=C(C1)Nc1ccccc1NC2c1c(Cl)cc(OCc2ccccc2)cc1Cl (stereo not drawn) [compound 447, 11-(4-benzyloxy-2,6-dichlorophenyl)-3,3-dimethyl-2,3,4,5,10,11-hexahydro-1H-dibenzo[b,e][1,4]diazepin-1-one]
EC50 [1, 5]: 2.52 µM
IC50 [2, 6]: > 133 µM

CCN(CC)c1ccc(C2CC(=O)C3=C(C2)Nc2ccccc2N(C(=O)c2ccccc2)C3c2ccco2)cc1 (stereo not drawn) [compound 295]
EC50 [1, 7]: 21.6 µM
IC50 [2, 4]: > 42.7 µM

COc1ccc(OC)c(C2C3=C(CC(C)(C)CC3=O)Nc3ccccc3N2C(=O)C(F)(F)F)c1Br (stereo not drawn) [compound 96]
EC50 [1, 7]: 11.4 µM
IC50 [2, 4]: > 42.7 µM

COc1ccc(C2Nc3ccccc3NC3=C2C(=O)CC(C)(C)C3)cc1COc1ccc(F)cc1F (stereo not drawn) [compound 430]
EC50 [1, 5]: 10.8 µM
IC50 [2, 6]: > 33.3 µM

CC1(C)CC(=O)C2=C(C1)Nc1ccccc1N(C(=O)C(F)(F)F)C2c1ccc(OCc2ccccc2)cc1 (stereo not drawn) [compound 52]
EC50 [1, 7]: 7.44 µM
IC50 [2, 4]: > 42.7 µM

CCN(CC)c1ccc(C2C3=C(CC(C)(C)CC3=O)Nc3ccccc3N2C(=O)C(F)(F)F)cc1 (stereo not drawn) [compound 109]
EC50 [1, 7]: > 32 µM
IC50 [2, 4]: > 42.7 µM

CC1(C)CC(=O)C2=C(C1)Nc1ccccc1N(C(=O)c1ccccc1)C2c1ccc(F)cc1 (stereo not drawn) [compound 77]
EC50 [1, 7]: 21.2 µM
IC50 [2, 4]: > 42.7 µM

COc1ccc(OC)c(C2Nc3ccccc3NC3=C2C(=O)CC(c2ccc(Cl)cc2)C3)c1 (stereo not drawn) [compound 356]
EC50 [1, 5]: 16.1 µM
IC50 [2, 6]: > 42.7 µM

COc1ccc(C2CC(=O)C3=C(C2)Nc2ccccc2NC3c2ccccc2Cl)cc1 (stereo not drawn) [compound 383]
EC50 [1, 5]: 17.3 µM
IC50 [2, 6]: > 42.7 µM

CC(=O)N1c2ccccc2NC2=C(C(=O)CC(C)(C)C2)C1c1ccc(OCc2cccnc2)cc1 (stereo not drawn) [compound 140, 10-acetyl-3,3-dimethyl-11-[4-(3-pyridylmethoxy)phenyl]-2,3,4,5,10,11-hexahydro-1H-dibenzo[b,e][1,4]diazepin-1-one]
EC50 [1, 7]: 7.23 µM
IC50 [2, 4]: 19.1 µM

CC1(C)CC(=O)C2=C(C1)Nc1ccccc1NC2c1ccccc1C(=O)O (stereo not drawn) [compound 432]
EC50 [1, 5]: 17.7 µM
IC50 [2, 6]: > 42.7 µM

Cc1ccc(C2C3=C(CC(C)(C)CC3=O)Nc3ccccc3N2C(=O)Cc2ccccc2)o1 (stereo not drawn) [compound 271]
EC50 [1, 7]: 22.9 µM
IC50 [2, 4]: > 33.3 µM

CC(C)C(=O)N1c2ccccc2NC2=C(C(=O)CC(C)(C)C2)C1c1ccc(Br)s1 (stereo not drawn) [compound 262]
EC50 [1, 7]: 5.54 µM
IC50 [2, 4]: > 42.7 µM

CCC(=O)N1c2ccccc2NC2=C(C(=O)CC(C)(C)C2)C1c1c(Cl)cccc1Cl (stereo not drawn) [compound 46]
EC50 [1, 7]: 11.1 µM
IC50 [2, 4]: > 42.7 µM

COc1ccc(OC)c(C2C3=C(CC(C)(C)CC3=O)Nc3ccccc3N2C(=O)Cc2ccccc2)c1 (stereo not drawn) [compound 22]
EC50 [1, 7]: 10.8 µM
IC50 [2, 4]: > 42.6 µM

COc1ccc(C2Nc3ccc(C(=O)c4ccccc4)cc3NC3=C2C(=O)CC(C)(C)C3)cc1OC (stereo not drawn) [compound 453]
EC50 [1, 5]: 19.2 µM
IC50 [2, 6]: > 42.7 µM

CCOc1ccc(C2C3=C(CC(C)(C)CC3=O)Nc3ccccc3N2C(=O)Cc2ccccc2)cc1 (stereo not drawn) [compound 86]
EC50 [1, 7]: 9.69 µM
IC50 [2, 4]: > 42.7 µM

CC(=O)N1c2ccccc2NC2=C(C(=O)CC(C)(C)C2)C1c1ccccc1OCc1ccccc1 (stereo not drawn) [compound 44]
EC50 [1, 3]: 9.54 µM
IC50 [2, 4]: > 42.7 µM

CC(C)C(=O)N1c2ccccc2NC2=C(C(=O)CC(C)(C)C2)C1c1ccc(OCc2ccccc2)cc1 (stereo not drawn) [compound 99]
EC50 [1, 7]: 3.69 µM
IC50 [2, 4]: > 42.7 µM

COc1ccccc1C1C2=C(CC(C)(C)CC2=O)Nc2ccccc2N1C(=O)Cc1ccccc1 (stereo not drawn) [compound 81]
EC50 [1, 7]: 6.72 µM
IC50 [2, 4]: > 42.7 µM

COc1ccc(C2CC(=O)C3=C(C2)Nc2ccccc2N(C(=O)C(F)(F)F)C3c2ccc(Cl)cc2)cc1 (mixture of isomers) [compound 210]
EC50 [1, 8]: 12.1 µM
IC50 [2, 9]: > 33.3 µM

CC(=O)N1c2ccccc2NC2=C(C(=O)CC(C)(C)C2)C1c1ccc(OCc2ccccn2)cc1 (stereo not drawn) [compound 141, 10-acetyl-3,3-dimethyl-11-[4-(2-pyridylmethoxy)phenyl]-2,3,4,5,10,11-hexahydro-1H-dibenzo[b,e][1,4]diazepin-1-one]
EC50 [1, 7]: 16.3 µM
IC50 [2, 4]: 7.91 µM

CC1(C)CC(=O)C2=C(C1)Nc1ccccc1N(C(=O)Cc1ccc(F)cc1)C2c1cccs1 (stereo not drawn) [compound 251]
EC50 [1, 7]: 9.88 µM
IC50 [2, 4]: > 42.6 µM

CC1(C)CC(=O)C2=C(C1)Nc1ccccc1NC2c1cccc(Oc2ccccc2)c1 (stereo not drawn) [compound 433, 11-(3-phenoxyphenyl)-3,3-dimethyl-2,3,4,5,10,11-hexahydro-1H-dibenzo[b,e][1,4]diazepin-1-one]
EC50 [1, 5]: 3.81 µM
IC50 [2, 6]: > 133 µM

CC1(C)CC(=O)C2=C(C1)Nc1ccccc1NC2c1ccc(OCc2ccccc2)cc1Cl (stereo not drawn) [compound 443]
EC50 [1, 5]: 1.78 µM
IC50 [2, 6]: 0.312 µM

CCCCC(=O)N1c2ccccc2NC2=C(C(=O)CC(C)(C)C2)C1c1ccccc1Cl (stereo not drawn) [compound 66]
EC50 [1, 7]: 23 µM
IC50 [2, 4]: > 42.7 µM

CC1(C)CC(=O)C2=C(C1)Nc1ccccc1N(C(=O)c1ccccc1)C2c1ccc([N+](=O)[O-])cc1 (stereo not drawn) [compound 13]
EC50 [1, 7]: 20.4 µM
IC50 [2, 4]: > 42.7 µM

O=C1CC(c2ccccc2)CC2=C1C(c1cccc(Oc3ccccc3)c1)Nc1ccccc1N2 (stereo not drawn) [compound 361]
EC50 [1, 5]: 6.65 µM
IC50 [2, 6]: > 42.7 µM

Cc1ccc(C2CC(=O)C3=C(C2)Nc2ccccc2N(C(=O)c2ccccc2)C3c2cccc(Cl)c2)cc1 (mixture of isomers) [compound 204]
EC50 [1, 8]: 9.96 µM
IC50 [2, 9]: > 33.3 µM

COc1cc(C2C3=C(CC(C)(C)CC3=O)Nc3ccccc3N2C(C)=O)ccc1OCc1ccccc1 (stereo not drawn) [compound 124]
EC50 [1, 8]: 28.9 µM
IC50 [2, 9]: 8.56 µM

CCCCCOc1ccc(C2C3=C(CC(C)(C)CC3=O)Nc3ccccc3N2C(C)=O)cc1 (stereo not drawn) [compound 102]
EC50 [1, 7]: > 32 µM
IC50 [2, 4]: > 42.7 µM
